Results on 8 compounds are retold here after ChEMBL document CHEMBL1154479, “Newer GABA derivatives for the treatment of epilepsy including febrile seizures: a bioisosteric approach” (Eur J Med Chem, 2008).

Activity calls are given as the source filed them. The rule behind the calls is not given here.

One series has as its system Mus musculus. Put plainly: Anticonvulsant activity in Swiss albino mouse assessed as inhibition of maximal electroshock-induced seizures at 300 mg/kg, ip administered 30 mins before electroshock measured after 0.5 hrs post electroshock. It is filed as functional, organism-based. The arrangement: dose 300 mg/kg.
Details: not given
On to `O=C(O)CCCNC(=S)NN=C1CCCC1`, for which the outcome was inactive.
On the same count and under the same terms, under `O=C(O)CCCNC(=S)N/N=C1\C(=O)Nc2ccccc21` stands “inactive”; under `O=C(O)CCCNC(=S)N/N=C(\c1ccccc1)c1ccc(Br)cc1`, “inactive”.
Still for that read-out and setting: for `CCC1(C)CC(=O)NC1=O` (centres undefined) [ETHOSUXIMIDE] the value was “inactive”; for `C/C(=N\NC(=S)NCCCC(=O)O)c1cccc(N)c1`, “inactive”; for `O=C(O)CCCNC(=S)NN=C1CCCCC1`, “inactive”.
Still for that read-out and setting: under `O=C(O)CCCNC(=S)NN=C(Cc1ccccc1)Cc1ccccc1` stands “inactive”; under `CN(C)c1ccc(/C=N/NC(=S)NCCCC(=O)O)cc1`, “inactive”.

In a further series the test system is Mus musculus. Put plainly: Anticonvulsant activity in ip dosed Swiss albino mouse assessed as inhibition of subcutaneous picrotoxin-induced seizures administered 30 mins before PIC challenge measured after 4 hrs post PIC challenge. Type of series: functional.
Details: not given
`O=C(O)CCCNC(=S)N/N=C1\C(=O)Nc2ccccc21`: the Activity was 300 mg/kg.
On the same count and under the same terms, under `C/C(=N\NC(=S)NCCCC(=O)O)c1cccc(N)c1` stands 300 mg/kg; under `O=C(O)CCCNC(=S)NN=C1CCCCC1`, 300 mg/kg.

For another series, the system named is Mus musculus. Description: Anticonvulsant activity in Swiss albino mouse assessed as inhibition of subcutaneous picrotoxin-induced seizures at 300 mg/kg, ip administered 30 mins before PIC challenge measured after 0.5 hrs post PIC challenge. On the set-up: dose 300 mg/kg. It is filed as functional, organism-based.
Details: not given
With `O=C(O)CCCNC(=S)NN=C1CCCC1`, the result was inactive.
The same measure, in the same setting: for `CCC1(C)CC(=O)NC1=O` (centres undefined) [ETHOSUXIMIDE] the value was “inactive”.

The next series deals with Mus musculus. Description: Anticonvulsant activity in ip dosed Swiss albino mouse assessed as inhibition of subcutaneous pentylenetetrazole-induced seizures administered 30 mins before PTZ challenge measured after 0.5 hrs post PTZ challenge.
Details: not given
Type of series: functional.
On to `O=C(O)CCCNC(=S)NN=C1CCCC1`, for which the Activity was determined as 100 mg/kg.
Still for that read-out and setting: for `O=C(O)CCCNC(=S)N/N=C1\C(=O)Nc2ccccc21` the value was 30 mg/kg.
The same measure, in the same setting: for `CCC1(C)CC(=O)NC1=O` (centres undefined) [ETHOSUXIMIDE] the value was 300 mg/kg.

The test system of the next series is Mus musculus. Put plainly: Anticonvulsant activity in Swiss albino mouse assessed as inhibition of subcutaneous strychnine-induced seizures at 300 mg/kg, ip administered 30 mins before STY challenge measured after 0.5 hrs post STY challenge. Type of series: functional, organism-based.
Details: not given
The arrangement: dose 300 mg/kg.
On to `O=C(O)CCCNC(=S)NN=C1CCCC1`, for which the result was inactive.
Same read-out and setting: for `O=C(O)CCCNC(=S)N/N=C1\C(=O)Nc2ccccc21` the value was “inactive”; for `CCC1(C)CC(=O)NC1=O` (centres undefined) [ETHOSUXIMIDE], “inactive”.
On the same count and under the same terms, for `C/C(=N\NC(=S)NCCCC(=O)O)c1cccc(N)c1` the value was “inactive”.
On the same count and under the same terms, for `O=C(O)CCCNC(=S)NN=C1CCCCC1` the value was “inactive”; for `O=C(O)CCCNC(=S)NN=C(Cc1ccccc1)Cc1ccccc1`, “inactive”.

The subject of the next series is Mus musculus. Put plainly: Anticonvulsant activity in ip dosed Swiss albino mouse assessed as inhibition of subcutaneous strychnine-induced seizures administered 30 mins before STY challenge measured after 4 hrs post STY challenge. It is filed as functional.
Details: not given
For the compound `CN(C)c1ccc(/C=N/NC(=S)NCCCC(=O)O)cc1`, the Activity was 300 mg/kg.

Another series deals with Mus musculus. Put plainly: Neurotoxicity in Swiss albino mouse assessed as inability of animal to maintain equilibrium on the rod for at least 1 min at 300 mg/kg, ip after 0.5 hrs by rotarod test. It is filed as toxicity, organism-based. To be noted: in vivo. On the set-up: dose 300 mg/kg, route intraperitoneal.
Take `O=C(O)CCCNC(=S)NN=C1CCCC1`: the Activity result is recorded as “Non-toxic”.
The same measure, in the same setting: under `O=C(O)CCCNC(=S)N/N=C1\C(=O)Nc2ccccc21` stands “Non-toxic”.
On the same count and under the same terms, for `CCC1(C)CC(=O)NC1=O` (centres undefined) [ETHOSUXIMIDE] the value was “Non-toxic”.
The same measure, in the same setting: for `C/C(=N\NC(=S)NCCCC(=O)O)c1cccc(N)c1` the value was “Non-toxic”; for `O=C(O)CCCNC(=S)NN=C1CCCCC1`, “Non-toxic”.
With `O=C(O)CCCNC(=S)NN=C(Cc1ccccc1)Cc1ccccc1`, the Activity entry is on record as “Non-toxic”.
On to `CN(C)c1ccc(/C=N/NC(=S)NCCCC(=O)O)cc1`, for which the Activity entry is “Non-toxic”.

A further series has as its system Mus musculus. Description: Anticonvulsant activity in Swiss albino mouse assessed as inhibition of subcutaneous pentylenetetrazole-induced seizures at 300 mg/kg, ip administered 30 mins before PTZ challenge measured after 4 hrs post PTZ challenge. Type of series: functional, organism-based. The arrangement: dose 300 mg/kg.
Details: not given
For `O=C(O)CCCNC(=S)NN=C1CCCC1`, the result was inactive.
On the same count and under the same terms, for `O=C(O)CCCNC(=S)N/N=C1\C(=O)Nc2ccccc21` the value was “inactive”; for `O=C(O)CCCNC(=S)N/N=C(\c1ccccc1)c1ccc(Br)cc1`, “inactive”.
The same measure, in the same setting: under `CCC1(C)CC(=O)NC1=O` (centres undefined) [ETHOSUXIMIDE] stands “inactive”.
On the same count and under the same terms, under `C/C(=N\NC(=S)NCCCC(=O)O)c1cccc(N)c1` stands “inactive”.
Turning to `O=C(O)CCCNC(=S)NN=C1CCCCC1`, the outcome was inactive.
Take `O=C(O)CCCNC(=S)NN=C(Cc1ccccc1)Cc1ccccc1`: the outcome was inactive.
On the same count and under the same terms, for `CN(C)c1ccc(/C=N/NC(=S)NCCCC(=O)O)cc1` the value was “inactive”.

The test system of a further series is Mus musculus. Description: Anticonvulsant activity in ip dosed Swiss albino mouse assessed as inhibition of subcutaneous picrotoxin-induced seizures administered 30 mins before PIC challenge measured after 0.5 hrs post PIC challenge. Type of series: functional.
Details: not given
Regarding `O=C(O)CCCNC(=S)N/N=C1\C(=O)Nc2ccccc21`, the Activity amounted to 300 mg/kg.
Still for that read-out and setting: for `C/C(=N\NC(=S)NCCCC(=O)O)c1cccc(N)c1` the value was 300 mg/kg; for `O=C(O)CCCNC(=S)NN=C1CCCCC1`, 300 mg/kg.

The next series relates to Mus musculus. Description: Anticonvulsant activity in Swiss albino mouse assessed as inhibition of subcutaneous picrotoxin-induced seizures at 300 mg/kg, ip administered 30 mins before PIC challenge measured after 4 hrs post PIC challenge. It is filed as functional, organism-based. On the set-up: dose 300 mg/kg.
Details: not given
As to `O=C(O)CCCNC(=S)NN=C1CCCC1`, the result was inactive.
Still for that read-out and setting: under `CCC1(C)CC(=O)NC1=O` (centres undefined) [ETHOSUXIMIDE] stands “inactive”.
The same measure, in the same setting: for `O=C(O)CCCNC(=S)NN=C(Cc1ccccc1)Cc1ccccc1` the value was “inactive”.

The next series relates to Mus musculus. Put plainly: Neurotoxicity in ip dosed Swiss albino mouse assessed as inability of animal to maintain equilibrium on the rod for at least 1 min after 4 hrs by rotarod test. Type of series: toxicity, organism-based. To be noted: in vivo.
Regarding `O=C(O)CCCNC(=S)NN=C(Cc1ccccc1)Cc1ccccc1`, the Activity amounted to 300 mg/kg.

The subject of another series is Mus musculus. Put plainly: Anticonvulsant activity in ip dosed Swiss albino mouse assessed as inhibition of subcutaneous strychnine-induced seizures administered 30 mins before STY challenge measured after 0.5 hrs post STY challenge. Type of series: functional.
Details: not given
As to `O=C(O)CCCNC(=S)N/N=C(\c1ccccc1)c1ccc(Br)cc1`, the Activity was found to be 100 mg/kg.
On the same count and under the same terms, under `CN(C)c1ccc(/C=N/NC(=S)NCCCC(=O)O)cc1` stands 300 mg/kg.

The next series concerns Mus musculus. Put plainly: Neurotoxicity in Swiss albino mouse assessed as inability of animal to maintain equilibrium on the rod for at least 1 min at 300 mg/kg, ip after 4 hrs by rotarod test. On the set-up: dose 300 mg/kg, route intraperitoneal. It is filed as toxicity, organism-based. The conditions noted are these: in vivo.
As for `O=C(O)CCCNC(=S)NN=C1CCCC1`, the Activity entry was “Non-toxic”.
Same read-out and setting: for `O=C(O)CCCNC(=S)N/N=C1\C(=O)Nc2ccccc21` the value was “Non-toxic”.
As to `O=C(O)CCCNC(=S)N/N=C(\c1ccccc1)c1ccc(Br)cc1`, the Activity entry is “Non-toxic”.
Same read-out and setting: for `CCC1(C)CC(=O)NC1=O` (centres undefined) [ETHOSUXIMIDE] the value was “Non-toxic”; for `C/C(=N\NC(=S)NCCCC(=O)O)c1cccc(N)c1`, “Non-toxic”.
Still for that read-out and setting: for `O=C(O)CCCNC(=S)NN=C1CCCCC1` the value was “Non-toxic”; for `CN(C)c1ccc(/C=N/NC(=S)NCCCC(=O)O)cc1`, “Non-toxic”.

The next series relates to Mus musculus. Put plainly: Anticonvulsant activity in Swiss albino mouse assessed as inhibition of subcutaneous pentylenetetrazole-induced seizures at 300 mg/kg, ip administered 30 mins before PTZ challenge measured after 0.5 hrs post PTZ challenge. Type of series: functional, organism-based. The arrangement: dose 300 mg/kg.
Details: not given
`O=C(O)CCCNC(=S)N/N=C(\c1ccccc1)c1ccc(Br)cc1`: the outcome was inactive.
Consider `C/C(=N\NC(=S)NCCCC(=O)O)c1cccc(N)c1`, for which the outcome was inactive.
On the same count and under the same terms, under `O=C(O)CCCNC(=S)NN=C1CCCCC1` stands “inactive”; under `O=C(O)CCCNC(=S)NN=C(Cc1ccccc1)Cc1ccccc1`, “inactive”; under `CN(C)c1ccc(/C=N/NC(=S)NCCCC(=O)O)cc1`, “inactive”.

The next series relates to Rattus norvegicus. Put plainly: Anticonvulsant activity in Wistar rat assessed as protection against hyperthermia-induced seizures at 100 mg/kg, ip relative to control. Type of series: functional. To be noted: route intraperitoneal.
In the case of `O=C(O)CCCNC(=S)NN=C1CCCC1`, the Activity came to 71%.
Same read-out and setting: under `O=C(O)CCCNC(=S)N/N=C1\C(=O)Nc2ccccc21` stands 92%; under `O=C(O)CCCNC(=S)N/N=C(\c1ccccc1)c1ccc(Br)cc1`, 19%; under `C/C(=N\NC(=S)NCCCC(=O)O)c1cccc(N)c1`, 27%.
On the same count and under the same terms, under `O=C(O)CCCNC(=S)NN=C1CCCCC1` stands 78%; under `O=C(O)CCCNC(=S)NN=C(Cc1ccccc1)Cc1ccccc1`, 73%; under `CN(C)c1ccc(/C=N/NC(=S)NCCCC(=O)O)cc1`, 88%.

The test system of a further series is Mus musculus. Put plainly: Anticonvulsant activity in Swiss albino mouse assessed as inhibition of subcutaneous strychnine-induced seizures at 300 mg/kg, ip administered 30 mins before STY challenge measured after 4 hrs post STY challenge. Type of series: functional, organism-based. The arrangement: dose 300 mg/kg.
Details: not given
As for `O=C(O)CCCNC(=S)NN=C1CCCC1`, the result was inactive.
On to `O=C(O)CCCNC(=S)N/N=C1\C(=O)Nc2ccccc21`, for which the outcome was inactive.
For the compound `O=C(O)CCCNC(=S)N/N=C(\c1ccccc1)c1ccc(Br)cc1`, the outcome was inactive.
The same measure, in the same setting: under `CCC1(C)CC(=O)NC1=O` (centres undefined) [ETHOSUXIMIDE] stands “inactive”; under `C/C(=N\NC(=S)NCCCC(=O)O)c1cccc(N)c1`, “inactive”.
On the same count and under the same terms, under `O=C(O)CCCNC(=S)NN=C1CCCCC1` stands “inactive”; under `O=C(O)CCCNC(=S)NN=C(Cc1ccccc1)Cc1ccccc1`, “inactive”.

The test system of another series is Mus musculus. Put plainly: Neurotoxicity in ip dosed Swiss albino mouse assessed as inability of animal to maintain equilibrium on the rod for at least 1 min after 0.5 hrs by rotarod test. Type of series: toxicity, organism-based. To be noted: in vivo.
With `O=C(O)CCCNC(=S)N/N=C(\c1ccccc1)c1ccc(Br)cc1`, the Activity came out at 300 mg/kg.
